Laboratory results taken from patent US11911397B2, “Anordrin compositions and methods for treating diseases” (Zhejiang Jiachi Development Pharmaceuticals LTD, priority 2014, dated 2024).

How the values were obtained:
[1] = system: HepG2 cells; experiment: HepG2 cell growth; type: cell-based
[2] = system: BRCA1, ApoD, COX7a mRNA in MCF-7 cells; experiment: RT-qPCR of genes regulated by the estrogen classic pathway in MCF-7 cells; type: cell-based
[3] = target: T1, ER-α-36 (Homo sapiens, UniProt P03372); experiment: 3H-E2 binding to ER-α-36 expressed in HEK-293 cells; conditions: blocking at low, facilitating at higher concentrations
T1 construct: expressed in transfected cells; host or cells: HEK-293
T1 sequence (P03372 1-310 isoform P03372-4): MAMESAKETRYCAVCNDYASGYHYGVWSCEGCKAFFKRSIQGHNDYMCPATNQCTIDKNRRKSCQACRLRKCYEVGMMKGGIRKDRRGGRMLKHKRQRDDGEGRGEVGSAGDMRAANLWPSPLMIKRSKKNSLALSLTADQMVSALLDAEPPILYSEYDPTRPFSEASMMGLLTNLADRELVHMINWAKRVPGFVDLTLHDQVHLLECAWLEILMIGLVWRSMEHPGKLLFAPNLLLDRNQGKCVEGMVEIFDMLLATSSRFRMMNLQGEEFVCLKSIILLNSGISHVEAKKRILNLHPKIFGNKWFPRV
Description: MIESs effect their regulation of cell proliferation, migration, cell-cell junction and matrix, and energy metabolism through a series of scaffold protein complexes. ER-α association with the plasma membrane is facilitated by palmitoylation at residue C447 in the LBD. […] To verify this, we measured the binding affinity of 3H-E2 with GST-ER-α-36 expressed and purified from E. coli. […] In contrast, 3H-E2 does bind to GST-ER-α-46, which has a full length ER-α-LBD.
Isolation of microsome and Drug competition assay: Cells were harvested and lysed in TE buffer (50 mM Tris (pH8.0), 5 mM EDTA, 2 mM PMSF and protease inhibitor cocktail (Sigma)) for 30 min with vortexing every 5 min. 80% glycerol in TE buffer was added to cell lysates to reach 20% and centrifuged at 800 g for 5 min. The supernatant was transferred to new tubes and total protein concentration was adjusted to 5 mg/ml. Drugs and ^3H-E2 were added to 1 ml protein solution and incubated at 4° C. for 2 hours. Microsome was precipitated at 25 krpm for 2 hours. Bound ^3H-E2 was measured using GM meter.

[4] = system: MDA-MB-231 cells; experiment: MDA-MB-231 cell growth, cell counting; type: cell-based; conditions: 6 μM anordrin
[5] = system: Hec1A cells; experiment: Hec1A cell proliferation; type: cell-based
[6] = system: Ishikawa cells; experiment: Ishikawa cell proliferation; type: cell-based
[7] = system: ovariectomized (OVX) mice; experiment: ovariectomized (OVX) mice model; type: in vivo
[8] = target: T2, ER-β (Homo sapiens, UniProt Q92731); experiment: 3H-E2 binding to ER-β fusion protein expressed in HEK-293 cells; conditions: 100 nM anordrin, 1 nM 3H-E2, HEK-293 lysate
T2 construct: expressed in transfected cells; host or cells: HEK-293
T2 sequence (Q92731 whole entry, species assumed, the tested form may be a part): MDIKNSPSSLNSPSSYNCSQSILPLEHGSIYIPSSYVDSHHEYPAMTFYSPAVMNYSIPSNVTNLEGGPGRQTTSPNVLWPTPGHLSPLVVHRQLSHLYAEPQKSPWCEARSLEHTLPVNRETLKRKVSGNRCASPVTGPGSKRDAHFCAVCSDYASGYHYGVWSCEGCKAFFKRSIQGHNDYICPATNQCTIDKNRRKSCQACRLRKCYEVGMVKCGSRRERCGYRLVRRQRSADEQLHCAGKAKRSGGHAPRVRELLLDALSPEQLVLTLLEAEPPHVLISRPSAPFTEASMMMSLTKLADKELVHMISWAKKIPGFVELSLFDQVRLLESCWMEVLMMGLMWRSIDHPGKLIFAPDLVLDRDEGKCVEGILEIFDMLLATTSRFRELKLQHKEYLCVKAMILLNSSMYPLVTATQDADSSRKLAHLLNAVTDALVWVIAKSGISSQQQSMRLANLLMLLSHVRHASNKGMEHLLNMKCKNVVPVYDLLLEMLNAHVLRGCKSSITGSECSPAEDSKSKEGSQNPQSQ
Description: (§1) Binding and competition assays: GST and GST-ER-α fusion proteins were expressed in E. coli and purified using glutathione beads. 2 μg/ml GST (40-80 nM) fusion proteins in 1 ml TE buffer was mixed with 1 nM ^3H-E2 at 4° C. for 2 h. Radioactivity on beads was measured using a GM meter. HEK-293 cells were transfected to express GST fusion proteins of ER-β or GPER1. Cells were lysed in 1×TE buffer containing protease inhibitor cocktail (sigma) on ice for 30 min, 80% glycerol was added to reach 20% glycerol. Tubes were centrifuged at 300 g for 5 min and supernatant was collected. Protein concentration was measured by Bio-rad protein concentration assay kit. 100 nM anordrin and 1 nM^3H-E2 was added to 1 ml lysate (5 mg/ml total protein) at 4° C. for 2 h. Radioactivity on beads was measured using GM meter.

[9] = system: Bcl-2 expression in MCF-7 cells; experiment: Bcl-2 expression in MCF-7 cells (western blotting, RT-qPCR); type: cell-based
[10] = system: patients whose cancers were potentially caused by EGF/Her1; conditions: patients who failed to be inhibited by an EGF competitor; cited from earlier work
[11] = system: normal mice; experiment: normal mice treated with tamoxifen, anordrin or both
[12] = system: db/db mice; experiment: blood glucose in db/db mice; type: in vivo
[13] = target: T3, ER-α ligand binding domain (GST-ER-α-LBD) (Homo sapiens, UniProt P03372); experiment: 3H-E2 competition assay on GST-ER-α-LBD beads
T3 construct: made in house; host or cells: E. coli
T3 sequence (P03372 311-547 limits assumed): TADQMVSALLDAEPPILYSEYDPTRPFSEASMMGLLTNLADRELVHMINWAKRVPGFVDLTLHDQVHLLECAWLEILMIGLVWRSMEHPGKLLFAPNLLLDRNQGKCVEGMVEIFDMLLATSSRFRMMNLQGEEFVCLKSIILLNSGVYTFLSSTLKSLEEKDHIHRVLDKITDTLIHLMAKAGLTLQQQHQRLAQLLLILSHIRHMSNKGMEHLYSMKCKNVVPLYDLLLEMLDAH

[14] = target: T4, GPER1 (Homo sapiens, UniProt Q99527); experiment: 3H-E2 binding to GPER1 fusion protein expressed in HEK-293 cells; conditions: 100 nM anordrin, 1 nM 3H-E2, HEK-293 lysate
T4 construct: expressed in transfected cells; host or cells: HEK-293
T4 sequence (Q99527 whole entry, species assumed, the tested form may be a part): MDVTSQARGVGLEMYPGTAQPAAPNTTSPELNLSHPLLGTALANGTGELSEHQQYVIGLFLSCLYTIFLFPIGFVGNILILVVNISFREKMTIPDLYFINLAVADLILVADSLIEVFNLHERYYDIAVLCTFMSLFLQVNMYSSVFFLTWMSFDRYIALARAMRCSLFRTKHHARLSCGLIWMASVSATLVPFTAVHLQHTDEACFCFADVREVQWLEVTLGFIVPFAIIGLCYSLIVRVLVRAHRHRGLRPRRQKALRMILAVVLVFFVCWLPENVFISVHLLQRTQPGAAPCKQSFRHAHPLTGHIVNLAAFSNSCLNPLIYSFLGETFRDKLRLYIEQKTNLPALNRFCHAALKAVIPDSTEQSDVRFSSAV
Description: as §1

[15] = system: ERK phosphorylation in HepG2 cells; experiment: phosphorylation of ERK in HepG2 cells; type: cell-based; conditions: non-monotonic dose response
[16] = system: endometrial epithelial cells; experiment: endometrial epithelial cells in mice (histology)
Description: Preparation of paraffin sections and HE staining: The tissue of mice was excised by surgery and fixed using 2.5% formaldehyde in 1×PBS.

[17] = system: MDA-MB-231 cells; experiment: MDA-MB-231 cell migration (matrixgel / transwell); type: cell-based; conditions: 6 μM anordrin
Description: As anordrin has been reported as an anti-angiogenic agent resulting in inhibition of cell migration and invasion (16), we studied its ability to modulate MDA-MB-231 cell migration using matrixgel. […] After 20 hours migrated cells were stained and quantified using a plate reader at 560 nm.
Transwell and flow cytometry assay: Cells were starved for 48 hours in phenol red free medium containing 5% charcoal-stripped FBS, and then changed into phenol red free medium for an additional 24 hours. Transwell was performed following the Chemicon kit instructions (CAT #ECM551). Briefly, cells were trypsinized, washed using 1×DPBS containing Ca2+ and Mg2+ (Sigma) and resuspensed in serum and phenol red free medium at a cell density of 0.5×10^6 cells/ml.

[18] = anordrin 0.45 μg/g in combination with tamoxifen 4.5 μg/g per day

For `C#C[C@@]1(OC(=O)CC)C[C@@H]2CC[C@@H]3[C@H](CC[C@@]4(C)[C@H]3CC[C@]4(C#C)OC(=O)CC)[C@@]2(C)C1` [anordrin, 2α,17α-diethynyl-A-nor-5α-androstane-2β,17β-diol dipropionate], the “concentration showing the greatest degree of inhibition of cell growth” value [1] was “around 7 μM”, the “shape of dose response of cell growth inhibition” value [1] was “biphasic dose response” and the “mRNA level of BRCA1” value [2] was “did not significantly affect”. For the same compound, the “effect on 3H-E2 binding to ER-α-36” value [3] was “biphasic effect”, the MDA-MB-231 cell growth [4] was “inhibits MDA-MB-231 cell growth significantly” and the doses inhibiting proliferation [5] was 2 to 8 µM. The doses inhibiting proliferation [6] was 2 to 8 µM, the “fat deposits in paraffin sections of liver” value ([7]; OVX mice) was “smaller fat deposits” and the body mass ([7]; OVX mice, after 6 weeks, intragastric) was “remained unchanged”. For the same compound, the “total cholesterol (TC) in liver” value ([7]; OVX mice, compared to controls) was “decreased amounts”, the “triglyceride (TG) in liver” value ([7]; OVX mice, compared to controls) was “decreased amounts” and the bone marrow cells ([7]; ovariectomized mice) was “prevent decrease”. The “serum Ca^2+” value ([7]; ovariectomized mice) was “increased”, the “serum Pi” value ([7]; ovariectomized mice) was “decreased” and the uterine atrophy ([7]; ovariectomized mice) was “prevent uterine atrophy”. The bone density ([7]; ovariectomized mice, micro-CT) was “increased”, the “3H-E2 binding to ER-β fusion protein” value [8] was “inhibits” and the “increase of Bcl-2 mRNA transcription” value ([9]; 6 μM dinordrin, RT-qPCR) was 3.18%±3.22%. The “Bcl-2 mRNA expression” value ([9]; 7.5 μM, data not shown) was “not affected”, the Bcl-2 protein expression ([9]; 7.5 μM, western blotting) was “not affected” and the Bcl-2 protein expression ([9]; charcoal-stripped FBS in phenol red free DMEM) was “Neither tamoxifen nor anordrin or analog thereof (such as anordrin) were found to affect Bcl-2 protein expression”. The “quality of life and lifespan of patients” value [10] was “improve the quality of life and increase the lifespan”, the “tamoxifen-induced NASH syndrome phenotype” value [11, 18] was “completely reversed” and the “tamoxifen-induced body weight phenotype” value [11, 18] was “completely reversed”. The “tamoxifen-induced liver TG phenotype” value [11, 18] was “completely reversed”, the “increased serum TG levels induced by tamoxifen” value ([11]; mice) was “reverse” and the “increased serum viscosity induced by tamoxifen” value ([11]; mice) was “reverse”. The “tamoxifen-induced uterine and vaginal atrophy” value ([11]; tamoxifen treated mice) was “decrease the extent”, the “whole blood glucose / glucose consumption” value ([12]; female db/db mice, 0.45 μg/g body mass daily, 4 weeks) was “improved glucose consumption” and the glucose consumption ([12]; male db/db mice, data not shown) was “no affect”. For the same compound, the “inhibition of 3H-E2 binding to GST-ER-α-LBD” value ([13]; 50 nM compound, 0.5 nM 3H-E2, 2 μg GST-ER-α-LBD) was “could not inhibit”, the “blocking of [H^3-E2] binding to GST-ER-α-LBD on beads” value ([13]; 50 nM, 0.5 nM [H^3-E2], 1 μg GST-ER-α-LBD) was “no inhibition” and the “3H-E2 binding to GPER1 fusion protein” value [14] was “inhibits”. The “concentration of maximal phosphorylation of ERK” value [15] was 10 µM, the “hypertrophy of endometrial epithelial cells” value [16] was “causes hypertrophy” and the “endometrial epithelial cell proliferation” value ([16]; monolayer vs polylayer) was “does not induce”. For the same compound, the “MDA-MB-231 cell migration in medium containing E2” value ([17]; 10 nM E2) was “significantly inhibited” and the “MDA-MB-231 cell migration in medium containing EGF” value ([17]; 10 ng/ml EGF) was “significantly inhibited”.
